From patent US20260325473A1, “N-Beta-Hydroxybutyryl-Amino Acids and Related Compositions and Methods” (The Board of Trustees of the Leland Stanford Junior …, priority 2023, published 2026)

Legend:
[1] = Keto-Med study, plasma metabolites; assay type: in vivo; settings: human; 4 weeks WFKD vs baseline
Procedure: Targeted metabolomics. Targeted measurements were performed using an Agilent 6470 triple quadrupole LC-MS instrument. MS analysis was performed using AJS in negative mode. The AJS source parameters were set as follows: the dry gas temperature was set at 250° C. with a gas flow of 12 l/min and the nebulizer pressure at 25 psi; the sheath gas temperature was set to 300° C. with the sheath gas flow set at 12 l/min; and the capillary voltage was set to 3,500 V. Separation of polar metabolites was performed as described above in the ‘Untargeted measurements of metabolites by LC-MS’ section. Multiple reaction monitoring was performed for the indicated metabolites with the listed dwell times, fragmentor voltage, collision energies, cell accelerator voltages and polarities. Quantification of the endogenous metabolite concentrations were performed by generating a standard curve with known concentrations of each metabolite. Metabolite standards were analyzed alongside the plasma samples using the same targeted triple quadrupole LC/MS method. A calibration standard curve generated from the metabolite standard concentrations and total peak areas were used to calculate the concentrations of each endogenous metabolite. The dilution of the plasma during the sample preparation was also taken into account for the quantification.
Keto-Med study. Keto-Med was a single-site, randomized, crossover, interventional trial comparing 2 metabolically distinct diets (well-formulated ketogenic diet, WFKD; and Mediterranean-plus diet, Med-Plus) among individuals with prediabetes and T2DM. Forty participants aged ≥18 years with prediabetes or T2DM followed the WFKD and the Med-Plus for 12 weeks each, in random order. Participants were randomly assigned into 1 of 2 different diet sequences: WFKD for 12 weeks (phase 1) and then the Med-Plus for 12 weeks (phase 2), or the opposite order. Ad libitum intake was advised, and participants were guided to follow 2 sets of dietary guidelines that shared 3 important similarities (incorporating nonstarchy vegetables and avoiding added sugars and refined grains) and 3 important differences (incorporating compared with avoiding legumes, fruits, and whole, intact grains). During the WFKD phase, participants were counseled to sustain nutritional ketosis by limiting carbohydrates to 20-50 g/day and keeping proteins to ~1.5 g/kg ideal body weight/day, with the remaining kcals coming from fats. Participants were also instructed to consume >3 servings/day of nonstarchy vegetables and maintain adequate mineral and fluid intake for the ketogenic state (sodium, 3-5 g/day; potassium, 3-4 g/day). […]

DIO mice [2] = test: Plasma ghrelin, leptin and GDF-15 in DIO mice; assay type: in vivo, mouse; settings: 50 mg/kg IP, single; 1 h
Procedure: Leptin, ghrelin and GDF-15 measurements. Plasma was collected from DIO mice 1 h after the administration of BHB-Phe (50 mg/kg, IP) or vehicle. ELISA kits for leptin (Crystal Chem 90030), ghrelin (Cayman Chemicals 10006307) and GDF-15 (R&D Systems DY6385-05) were used following manufacturer's instructions.

DIO mice [3] = test: Plasma AST, ALT, TG, HDL, LDL in DIO mice after chronic treatment; assay type: in vivo, mouse; settings: 50 mg/kg/day IP; 14 days
Procedure: (§1) General animal information. Animal experiments were performed according to procedure approved by the Stanford University Administrative Panel on Laboratory Animal Care (APLAC). Mice were maintained in 12-hr light-dark cycles at 22° C. and ~50% relative humidity and fed a standard irradiated rodent chow diet. Where indicated, high-fat diet (D12492, Research Diets 60% kcal from fat) and ketogenic diet (D06040601, Research Diets, 80% kcal fat/15% kcal protein/5% kcal carbohydrate) was used. Male C57BL/6J (stock no. 000664) and male C57BL/6J DIO mice (stock no. 380050) were purchased from Jackson Laboratory. Male C57BL/6NCrl (stock no. 027) mice were purchased from Charles River Laboratory. Whole body CNDP2-KO mice (catalog number, C57BL/6NCrl-Cndp2em1 (IMPC) Mbp/Mmucd, RRID: MMRRC_043492-UCD) were obtained from the Mutant Mouse Regional Resource Center, a NCRR-NIH funded strain repository. For in vivo injection of mice with metabolites, compounds were dissolved in 18:1:1 (by volume) of saline/Kolliphor EL (Sigma Aldrich)/DMSO. Compounds were administered to mice daily via intraperitoneal injections at 5 μl/g body weight at the indicated doses. For all injection experiments, mice were mock injected with the vehicle for 3-5 days until body weights have stabilized. Sample sizes were determined on the basis of previous experiments using similar methodologies. For metabolite administration experiments, mice were randomly assigned to treatment groups. Experimenters were not blinded to groups.

DIO mice [4] = test: Acute administration in DIO mice in home cages: food intake and plasma BHB-Phe; assay type: in vivo, mouse; settings: 50 mg/kg IP
Procedure: as §1
(§2) Preparation of plasma samples for LC-MS analysis. Plasma was collected from mice via a submandibular bleed into lithium heparin tubes (BD, 365985) and immediately transferred onto ice. […]
(§3) Targeted metabolomics. […] Quantification of the endogenous metabolite concentrations were performed by generating a standard curve with known concentrations of each metabolite. Metabolite standards were analyzed alongside the plasma samples using the same targeted triple quadrupole LC/MS method. […] The dilution of the plasma during the sample preparation was also taken into account for the quantification.

[5] = as above; assay type: in vivo, mouse; settings: mouse, plasma; 50 mg/kg IP, single; read-out: time of peak plasma level
Procedure: as §1, §2, §3

Compound: CC(O)CC(=O)N[C@H](C(=O)O)C(C)C (stereo partly drawn) [BHB-Val, N-betahydroxybutyryl-valine]
- induction of plasma keto amino acids on WFKD [1]: Robust induction

Compound: CC(O)CC(=O)N[C@@H](Cc1ccccc1)C(=O)O (stereo partly drawn) [BHB-Phe, N-betahydroxybutyryl-phenylalanine]
- plasma GDF15 (DIO mice [2]): unaltered
- plasma ghrelin (DIO mice [2]): unaltered
- plasma leptin (DIO mice [2]): unaltered
- plasma ALT (DIO mice [3]): reductions
- plasma AST (DIO mice [3]): reductions
- plasma HDL-cholesterol (DIO mice [3]): no changes
- plasma LDL-cholesterol (DIO mice [3]): no changes
- plasma total triglycerides (TG) (DIO mice [3]): reductions
- time to return of plasma level to largely baseline values (DIO mice [4]; single): ≤ 3 h
- food intake after single administration (home cages) (DIO mice [4]; 3 h and 1 h): suppressed food intake at a 3 h, but not 1 h time point
- Tmax [5]: 1 h
